Reference: ChEMBL document CHEMBL1125599, “Cholinergic activity of acetylenic imidazoles and related compounds” (J Med Chem, 1991)

What was measured:
Mus musculus [1] = experiment: ED50 value as cholinergic agonism by measuring lacrimation in mice (in vivo); format: functional
Mus musculus [2] = experiment: ED50 value as cholinergic agonist by measuring tremors in mice (in vivo); format: functional
Mus musculus [3] = experiment: ED50 value as cholinergic agonist by measuring salivation in mice (in vivo); format: functional
Mus musculus [4] = experiment: ED50 value determined as oxotremorine antagonism by measuring lacrimation in mice (in vivo); format: functional
Mus musculus [5] = experiment: ED50 value determined as oxotremorine antagonism by measuring salivation in mice (in vivo); format: functional
[6] = target: Muscarinic acetylcholine receptor; experiment: Binding affinity to muscarinic acetylcholine receptor was determined in presence of [3H]OXO-M radioligand (in vitro); format: protein assay
[7] = target: Muscarinic acetylcholine receptor; experiment: Binding affinity to muscarinic acetylcholine receptor was determined in presence of [3H]QNB radioligand (in vitro); format: protein assay
[8] = target: Muscarinic acetylcholine receptor (Rattus norvegicus) (UniProt P08482+P08483+P08485+P08911+P10980); experiment: Ratio of Ki value for QNB to that of Ki value for Oxo-M.; format: protein assay
Mus musculus [9] = experiment: ED50 value determined as oxotremorine antagonism by measuring tremors in mice (in vivo); format: functional

| Structure (SMILES) | ED50 (Mus musculus [1]) | ED50 (Mus musculus [2]) | ED50 (Mus musculus [3]) | ED50 (Mus musculus [4]) | ED50 (Mus musculus [5]) | Ki [6] | Ki [7] | Ki ratio [8] | ED50 (Mus musculus [9]) |
| --- | --- | --- | --- | --- | --- | --- | --- | --- | --- |
| CN1CCN(CC#CCn2ccnc2)C1=O | 1.4 mg/kg | 0.97 mg/kg | 1.4 mg/kg | > 100 mg/kg | > 100 mg/kg | 2.1 nM | 1.868 µM | 890 |  |
| CC(=O)N(C)C(C)C#CCn1ccnc1 (configuration not stated) | 3 mg/kg | 2 mg/kg | 3 mg/kg | > 100 mg/kg | > 100 mg/kg | 12 nM | 1.5 µM | 125 |  |
| CN(C)CC#CCN1CCNC1=O | 9.7 mg/kg | 9.7 mg/kg | 9.7 mg/kg | > 100 mg/kg | > 100 mg/kg | 43 nM | > 10 µM |  |  |
| O=C1CCCN1CC#CCn1cccn1 | > 100 mg/kg | > 100 mg/kg | > 100 mg/kg | > 100 mg/kg | > 100 mg/kg | > 10000 nM | > 10 µM |  | > 100 mg/kg |
| CN(C)CC#CCN1CCCC1=O |  |  |  |  |  | 1.1 nM | 2.6 µM | 2360 |  |
| CC(=O)N(C)C(C)C#CCn1cncc1C (configuration not stated) | > 100 mg/kg | > 100 mg/kg | > 100 mg/kg | 1.1 mg/kg | 3.7 mg/kg | 10 nM | 0.184 µM | 18 |  |
| O=C1CCCN1CC#CCn1cnc2ccccc21 | > 100 mg/kg | > 100 mg/kg | > 100 mg/kg | 80 mg/kg | > 100 mg/kg | > 10000 nM | > 10 µM |  | > 100 mg/kg |
| Cc1cncn1CC#CCN1CCNC1=O | > 100 mg/kg |  | > 100 mg/kg | 21 mg/kg | 66 mg/kg | 138 nM | > 10 µM |  | > 100 mg/kg |
| CC(=O)N(C)CC#CCn1ccnc1 | 1.4 mg/kg | 0.97 mg/kg | 1.4 mg/kg | > 100 mg/kg | > 100 mg/kg | 1.92 nM | > 10 µM |  |  |
| CC(=O)N(C)CC#CCn1cncc1C |  | 5.4 mg/kg | 45 mg/kg | 6.6 mg/kg | > 100 mg/kg | 3.61 nM | 0.172 µM | 48 | > 100 mg/kg |
| CC(=O)N(C)C(C)C#CCN1CCCC1 (configuration not stated) | 0.66 mg/kg | > 10 mg/kg | 0.55 mg/kg | > 10 mg/kg | > 10 mg/kg |  |  |  |  |
| O=C1CCCN1CC#CCn1ccnc1 | 0.45 mg/kg | 0.45 mg/kg | 0.45 mg/kg | > 100 mg/kg | > 100 mg/kg | 1.3 nM | 0.6 µM | 460 |  |
| O=C1NCCN1CC#CCN1CCCC1 | > 3 mg/kg |  | > 3 mg/kg | > 3 mg/kg | > 3 mg/kg | 13 nM | 0.8 µM | 62 | > 3 mg/kg |
| Cn1ccn(CC#CCn2ccnc2)c1=O | 4.4 mg/kg | 4.5 mg/kg | 3.7 mg/kg | > 100 mg/kg | > 100 mg/kg | 35 nM | > 10 µM |  |  |
| COC(=O)N(C)CC#CCn1ccnc1 | 4.5 mg/kg | 2 mg/kg | 4.5 mg/kg | > 100 mg/kg | > 100 mg/kg | 10.2 nM | > 10 µM |  |  |
| CN(C)C(=O)N(C)CC#CCn1ccnc1 |  | 11.8 mg/kg | 25.4 mg/kg | 11.8 mg/kg | > 100 mg/kg | 14.6 nM | > 10 µM |  | > 100 mg/kg |
| Cn1ccn(CC#CCN2CCCC2)c1=O | 6.6 mg/kg | 3.7 mg/kg | 6.6 mg/kg | > 10 mg/kg | > 10 mg/kg | 7.1 nM | 0.51 µM | 72 |  |
| CC(=O)NCC#CCn1ccnc1 | > 100 mg/kg |  | > 100 mg/kg | > 100 mg/kg | > 100 mg/kg | 187 nM | > 10 µM |  | > 100 mg/kg |
| CCc1nccn1CC#CCN1CCCC1=O | > 100 mg/kg | > 100 mg/kg | > 100 mg/kg | 0.54 mg/kg | 2.5 mg/kg | 29.1 nM | 0.0569 µM | 2 |  |
| COC(=O)N(C)CC#CCN(C)C | 9.7 mg/kg | 17.3 mg/kg | 14.3 mg/kg | > 30 mg/kg | > 30 mg/kg | 19 nM | > 10 µM |  | > 30 mg/kg |
| O=C1NCCN1CC#CCn1ccnc1 | 30 mg/kg |  | 17.3 mg/kg | > 100 mg/kg | > 100 mg/kg | 62 nM | > 10 µM |  | > 100 mg/kg |
